This note sets out measurements from patent US20230203081A1, “LINCOSAMIDE ANTIBIOTICS AND USES THEREOF” (President and Fellows of Harvard College, priority 2020, published 2023).

Data set [1] has as its system mammalian cells (A549, K562, HCT116, HepG2). The experiment in a line: Mammalian cell growth inhibition (CellTiter-Blue cell viability assay). The note with it: cell-culture safety profiling; result in words. Format: cell-based, human. Here is the method:
(§1) Mammalian cell experiments: All compounds were dissolved in sterile DMSO to a stock concentration of 20 μM and aliquoted prior to freezing at −20° C. Aliquots were limited to a maximum of 3 freeze-thaw cycles. A549 (human pulmonary carcinoma; […]) cells were cultured in Dulbecco's Modified Eagle Medium (DMEM) supplemented with 10% fetal bovine serum. K562 (human chronic myelogenous leukemia; […]) cells were cultured in Iscove's Modification of DMEM (IMDM) media supplemented with 10% fetal bovine serum. HCT116 (human colorectal carcinoma; […]) cells were cultured in McCoy's 5a (Iwakata & Grace Modification) media supplemented with 10% fetal bovine serum. HepG2 (human hepatocellular carcinoma; […]) cells were cultured in Eagle's Minimum Essential Medium (EMEM) supplemented with 10% fetal bovine serum. All cell cultures were maintained in a 5% CO2 incubator at 37° C.
(§2) Growth inhibition was studied using the Promega CellTiter-Blue cell viability assay pursuant to the manufacturer's protocol. Briefly, cells were harvested, diluted, and mixed with the desired concentration of test compound. […] Plates were read on a SpectraMax i3 plate reader. GI50 values were determined by nonlinear regression using GraphPad Prism and represent the mean of at least three independent experiments.

Assay in data set [2]: as above
Format: cell-based, human. Conditions: human, A549, K562, HCT116 and HepG2 cells; mammalian cells, 72 h. Here is the method: as §1, §2

On to `CSC1O[C@H]([C@H](NC(=O)[C@H]2NC[C@@H]3C[C@H](CC(C)C)CCO[C@H]32)[C@H](C)Cl)C(O)[C@@H](O)[C@H]1O` (some centres unmarked) [FSA-513018b], for which the “toxicity toward mammalian cells” value in data set [1] is recorded as “non-toxic”. The GI50 at 72 h in data set [2] is above 50 µM.
